One data set has as its target M184V mutant RT (Human immunodeficiency virus type 1 group M subtype B, UniProt P04585, M771V). Kind of data set: biochemical. The note with it: read-out: Ki M184V. In kind it is biochemical, HIV-1.
The target of the next data set is T1, DNA Pol γ (Homo sapiens, UniProt P54098).
T1 sequence (P54098 1-1239): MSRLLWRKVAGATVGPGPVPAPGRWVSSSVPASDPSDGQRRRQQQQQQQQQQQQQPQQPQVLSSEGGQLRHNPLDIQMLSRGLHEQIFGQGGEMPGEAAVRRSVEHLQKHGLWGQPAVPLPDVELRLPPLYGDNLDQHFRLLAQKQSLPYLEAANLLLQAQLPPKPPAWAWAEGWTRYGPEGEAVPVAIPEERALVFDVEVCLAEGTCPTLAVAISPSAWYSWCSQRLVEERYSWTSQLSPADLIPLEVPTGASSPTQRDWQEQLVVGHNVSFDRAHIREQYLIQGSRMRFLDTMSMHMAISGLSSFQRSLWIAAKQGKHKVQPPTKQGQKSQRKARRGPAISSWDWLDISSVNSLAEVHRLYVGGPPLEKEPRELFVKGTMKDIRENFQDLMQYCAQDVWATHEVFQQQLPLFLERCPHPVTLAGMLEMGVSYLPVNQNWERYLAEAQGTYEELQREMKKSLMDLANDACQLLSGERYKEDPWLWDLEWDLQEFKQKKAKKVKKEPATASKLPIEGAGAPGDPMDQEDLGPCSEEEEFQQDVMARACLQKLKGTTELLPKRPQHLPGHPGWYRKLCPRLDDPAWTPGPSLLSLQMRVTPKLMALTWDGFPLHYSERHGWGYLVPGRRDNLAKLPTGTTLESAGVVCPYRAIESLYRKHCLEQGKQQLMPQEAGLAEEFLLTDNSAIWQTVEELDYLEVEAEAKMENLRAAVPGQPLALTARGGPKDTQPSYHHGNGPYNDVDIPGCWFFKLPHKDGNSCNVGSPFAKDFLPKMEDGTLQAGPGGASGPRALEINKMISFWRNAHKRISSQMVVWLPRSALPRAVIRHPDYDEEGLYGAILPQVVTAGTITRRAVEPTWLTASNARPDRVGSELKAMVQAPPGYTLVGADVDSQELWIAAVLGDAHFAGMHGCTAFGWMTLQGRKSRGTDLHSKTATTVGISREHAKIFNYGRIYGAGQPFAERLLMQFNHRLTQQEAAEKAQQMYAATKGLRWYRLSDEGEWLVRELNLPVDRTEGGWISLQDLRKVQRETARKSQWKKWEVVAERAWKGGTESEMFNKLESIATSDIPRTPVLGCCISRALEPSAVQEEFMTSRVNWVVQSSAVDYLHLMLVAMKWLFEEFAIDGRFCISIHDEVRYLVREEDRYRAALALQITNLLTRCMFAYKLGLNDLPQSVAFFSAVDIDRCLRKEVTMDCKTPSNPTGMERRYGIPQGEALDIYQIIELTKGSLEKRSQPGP
Kind of data set: Inhibition of pure DNA polymerase γ by nucleoside triphosphates. The class given is biochemical. Conditions: tritiated dCTP incorporation. As to the method:
(§1) Triphosphates of nucleosides were tested against pure polymerases using tritiated dCTP incorporation.

The target of a further data set is T2, wild type HIV-RT (Human immunodeficiency virus type 1 group M subtype B, UniProt P04585).
T2 construct: The Ki value for β-D-D4FC-TP for wild type HIV-RT
The experiment in a line: Ki / Km for wild type HIV-RT. In kind it is biochemical, HIV-1.

Another data set addresses T3, HIV RT (Human immunodeficiency virus type 1 group M subtype B, UniProt P04585).
T3 construct: purified HIV-1 reverse transcriptase (RT)
Kind of data set: Inhibition of purified HIV-1 reverse transcriptase by nucleoside triphosphates (tritiated dCTP incorporation). The class given is biochemical. The protocol: An assay was performed to determine the ability of β-D-D4FC-triphosphate to terminate polymerization catalyzed by purified HIV-1 reverse transcriptase (RT). […] The target concentration is that concentration where most mutant variants tested are suppressed by 90% or more. The concentration of 5 μM is the target plasma concentration as most, mutant variants tested were suppressed ≧90% in vitro.
as §1

The target in a further data set is DNA Pol β (Homo sapiens, UniProt P06746). Kind of data set: Inhibition of pure DNA polymerase β by nucleoside triphosphates. The class given is biochemical. Conditions: tritiated dCTP incorporation. The protocol:
as §1

Another data set in a line: clinical. The note with it: in vivo.
Data set [1] deals with AZT/3TC-resistant HIV-1 recombinant viruses. The experiment in a line: microbe, parasite or virus in culture. In kind it is cell-based. The note with it: Human immunodeficiency virus 1, read-out: Average IC90 for AZT/3TC-R virus. As to the method: A panel of 22 viruses was constructed in the HXB2 background using the Protease and RT sequences from clinical isolates to determine Virco Profiling against recombinant clinical isolates (see FIGS. 7a and 7b). Viruses contained 2 to 17 mutations in RT frequently associated with nucleoside resistance, including: M184V, M41L, D67N, T215Y. IC50 values were determined using a high through-put reporter virus assay.

For data set [2] the following is noted: human, in vivo.
For data set [3] the following is noted: pbmc.
A short description of data set [4]: Comparison to other nucleosides: plasma pharmacokinetics.
The test system of data set [5] is acutely HIV-1 infected human PBM cells. Kind of data set: Median effect / combination index study with Racivir. In kind it is cell-based. Conditions: Human immunodeficiency virus 1, PBMC, 120 h, Day 5, assays (1), (2), (3); for EC90: read-out: EC90.
A further data set has as its system HIV viral load. The experiment in a line: Viral load decline on repeated dosing, β-D-D4FC and competing nucleosides. The note with it: 200 to 600 mg QD, duration of dosing 14; not monotherapy, in combination with EFV & D4T. The class given is in vivo.
The nature of data set [6]: Intracellular phosphorylation and triphosphate half-life in PBMCs.
Setting [7] is: pure polymerase, tritiated dCTP incorporation, read-out: IC50.

Like-named read-outs stand apart in the source and are kept apart here. A value given as a limit tells only on which side of the number the result lay.

With `Nc1ccn([C@@H]2CS[C@H](COP(=O)(O)OP(=O)(O)OP(=O)(O)O)O2)c(=O)n1` [3TC-TP], the Ki on M184V mutant RT came to 85 µM; on wild type HIV-RT (read-out: Ki WT), 950 nM. Also, the IC50 on DNA Pol γ turned out to be 43.1 µM; on HIV RT (setting [7]), 570 nM; against DNA Pol β it was 10.3 µM.

Regarding `O=c1[nH]cnc2c1ncn2[C@H]1CC[C@@H](CO)O1` [DDI, 2′,3′-dideoxyinosine], the concentration in the data set “clinical” peaked (Cmax) at 4.2 µM. Also, the IC90 in data set [1] was found to be 12.6 µM. On wild type HIV-RT, this compound returned an inhibition constant Ki of 80 to 8000 nM. The “Intracellular [Nuc-PPP] in patients” value in [2] was <0.5 µM. In addition, in data set [3], the Intracellular half life was in the range of 25 to 40 h. In data set [4], this compound showed a half-life of 90 min. In data set [5] (read-out: EC50), the concentration giving a half-maximal response (EC50) worked out at 380 nM. Further, the EC90 in data set [5] amounted to 2200 nM.

For the compound `Nc1nc(=O)n(C2CSC(CO)O2)cc1F` (stereo not shown) [Racivir, reference compound], the “Viral Load Decline (log)” value in the data set on HIV viral load was −2.02 to −2.43 log. In data set [5], the concentration for an effect of 90% (EC90) is 170 nM.

With `Nc1nc(=O)n([C@H]2C=C[C@@H](COP(=O)(O)OP(=O)(O)OP(=O)(O)O)O2)cc1F` [β-D-D4FC-TP], the Ki at M184V mutant RT stood at 0.3 µM; at wild type HIV-RT (read-out: Ki WT), 100 nM. Further, the concentration for half-maximal inhibition (IC50) came out at 0.74 µM on DNA Pol γ; 140 nM at HIV RT (setting [7]); 67 ± 40 nM on HIV RT (read-out: IC50, wild type purified RT); 1.2 µM at DNA Pol β. This compound came in with an Intracellular half life in data set [6] of 13 to 17 h. In addition, the intracellular half-life in data set [6] lay within 13 to 17 h. Further, the “extracellular concentration at which intracellular conversion to β-D-D4FC-TP plateaus” value in data set [6] (PHA-stimulated PBMCs) is ~10 µM. Also, the “accumulation, % of parent” value in [6] (in 8-10 hours) is listed as ~10%.

Usually Ki stands for the dissociation constant of the complex between target and ligand, obtained from inhibition or displacement. For orientation: IC50 means the concentration that inhibits the measured activity by half. As a reminder, the Cmax is the highest concentration seen after dosing. As usually defined, the half-life is how long it takes for the measured level to halve. The term EC50 denotes the midpoint of the concentration-response curve. One may read the EC90 as the concentration at which the effect reaches the 90% level.

The values above are taken from patent publication US20050244490A1, “Dosing methods for beta-D-2',3'-dideoxy-2',3'-didehydro-5-fluorocytidine antiviral therapy” (priority 2003, published 2005).
